Among the data in PubChem BioAssay (NCI) are TGI and GI50 values, retold here.

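All cell lines were grown in 96-well plates and treated with compound for 48 hours. GI50 is the concentration that inhibits growth by half. At the TGI there is no net growth.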

Some test systems named below: OVCAR-3 ovarian; SK-MEL-5 melanoma; ACHN renal; HOP-62 NSCLC; SNB-75 CNS; M14 melanoma; HCT-15 colon; BT-549 breast; DU-145 prostate.
What all share (assay): DTP human tumour cell line panel, 48 h

A word on the TGI: it is the concentration giving total growth inhibition. A higher TGI goes with lower sensitivity of the cells. `COC(=O)[C@@]1(C(C)CC(=O)O)CCCCC1=O` (stereo partly drawn): the TGI in the experiment with OVCAR-3 ovarian, with SK-MEL-5 melanoma, in the experiment with ACHN renal, with HOP-62 NSCLC, in the experiment on SNB-75 CNS and in the experiment on M14 melanoma was > 100 µM each time. Also, in the experiment with HCT-15 colon, the TGI was > 100 µM.
By GI50 is commonly meant the concentration that inhibits growth by half. As for `C[CH2][Sn]([CH2]C)([O]C(=O)c1ccccc1OC)[O][Sn]([CH2]C)([CH2]C)[O]C(=O)c1ccccc1OC`, the GI50 in the experiment with OVCAR-3 ovarian, in the experiment on SK-MEL-5 melanoma, with ACHN renal, in the experiment on HOP-62 NSCLC, in the experiment with SNB-75 CNS and in the experiment on M14 melanoma was > 100 µM in each case. The GI50 with HCT-15 colon was > 100 µM. For the same molecule, the concentration for total growth inhibition (TGI) with OVCAR-3 ovarian, in the experiment with SK-MEL-5 melanoma, in the experiment on ACHN renal, with HOP-62 NSCLC, with SNB-75 CNS and in the experiment on M14 melanoma was > 100 µM in each case. The TGI with HCT-15 colon was > 100 µM.
As for `C#CCNC(=O)[C@H](CC)[C@H]1CC[C@H](C)[C@H]([C@@H](C)[C@H](O)[C@H](C)C(=O)[C@H](CC)C2O[C@]3(C=CC(=O)[C@]4(CC[C@@](C)([C@H]5CC[C@](O)(CC)[C@H](C)O5)O4)O3)[C@H](C)C[C@@H]2C)O1` (stereo partly drawn), the GI50 was 1.83 µM with BT-549 breast; 1.86 µM in the experiment on OVCAR-3 ovarian; 1.69 µM with SK-MEL-5 melanoma; 2.94 µM in the experiment with ACHN renal; 1.99 µM in the experiment with HOP-62 NSCLC; 2.41 µM in the experiment on DU-145 prostate. Also, the GI50 was 1.39 µM in the experiment with SNB-75 CNS, 1.86 µM in the experiment with M14 melanoma and 2.61 µM in the experiment on HCT-15 colon. The TGI came out at 3.93 µM with BT-549 breast; 3.98 µM in the experiment on OVCAR-3 ovarian; 3.11 µM in the experiment with SK-MEL-5 melanoma; 14.6 µM in the experiment on ACHN renal; 4.91 µM with HOP-62 NSCLC; 6.32 µM in the experiment on DU-145 prostate. In addition, the total growth inhibition concentration (TGI) in the experiment with SNB-75 CNS turned out to be 3.36 µM; in the experiment on M14 melanoma, 4.57 µM; in the experiment with HCT-15 colon, 7.81 µM.
On to `CCCCC1(C)C=C/C(=C2/C(=O)O/C(=C\C(=O)O)C2=O)O1` (stereo not drawn), for which the total growth inhibition concentration (TGI) in the experiment on OVCAR-3 ovarian, in the experiment on SK-MEL-5 melanoma, in the experiment with ACHN renal, with HOP-62 NSCLC, with SNB-75 CNS and with M14 melanoma was > 100 µM in each case. In the experiment on HCT-15 colon, the TGI is > 100 µM.
For `Cc1nc(C(=O)O)c2ccccc2n1`, the total growth inhibition concentration (TGI) with OVCAR-3 ovarian, with SK-MEL-5 melanoma, with ACHN renal and in the experiment on SNB-75 CNS was > 100 µM throughout.
For the molecule `O=c1[nH]cc(F)c(=O)n1C1OC(CO)C(O)C1O` (stereo not drawn), the TGI in the experiment with OVCAR-3 ovarian, in the experiment on SK-MEL-5 melanoma, with ACHN renal, in the experiment with HOP-62 NSCLC, in the experiment with SNB-75 CNS and with M14 melanoma was > 100 µM throughout. Also, the total growth inhibition concentration (TGI) in the experiment with HCT-15 colon was > 100 µM.
With `COc1ccc(CCC2c3cc(OC)c(OC)cc3CCN2C)cc1OC` (stereo not drawn), the TGI in the experiment on OVCAR-3 ovarian, in the experiment with SK-MEL-5 melanoma, in the experiment with ACHN renal, in the experiment with HOP-62 NSCLC, in the experiment with SNB-75 CNS and in the experiment on M14 melanoma was > 100 µM throughout. For the same molecule, the TGI with HCT-15 colon is > 100 µM.
Regarding `CC1(C)CC(=O)C(/C(=N/NC(=S)NN)C(=O)Nc2nc3ccc([N+](=O)[O-])cc3s2)C(=O)C1`, the TGI in the experiment on OVCAR-3 ovarian, in the experiment on SK-MEL-5 melanoma, with ACHN renal, with HOP-62 NSCLC, with SNB-75 CNS and with M14 melanoma was > 100 µM throughout. The TGI with HCT-15 colon is > 100 µM.
As for `O=S(=O)(/C=C/C(=C/c1ccccc1)S(=O)(=O)c1ccccc1)c1ccccc1`, the concentration for total growth inhibition (TGI) was 3.13 µM in the experiment on OVCAR-3 ovarian; 3.14 µM in the experiment with ACHN renal; 3.5 µM with HOP-62 NSCLC; 3.43 µM in the experiment on SNB-75 CNS; 2.57 µM with M14 melanoma; 3.3 µM with HCT-15 colon.
As to `Cc1cc(C)nc(NS(=O)(=O)c2ccc(Nc3c4ccccc4nc4c(C(=O)Nc5ccc(S(=O)(=O)N=C(N)N)cc5)cccc34)cc2)n1`, the concentration for total growth inhibition (TGI) in the experiment with OVCAR-3 ovarian was > 100 µM; in the experiment on SK-MEL-5 melanoma, > 100 µM; in the experiment on ACHN renal it was > 100 µM; with HOP-62 NSCLC, > 100 µM; in the experiment on SNB-75 CNS, 88.5 µM; in the experiment with M14 melanoma, > 100 µM. In the experiment with HCT-15 colon, the total growth inhibition concentration (TGI) was > 100 µM.
As for `COc1cc2c(cc1OC)-c1ncc3c(OC)c(OC)c(OC)cc3c1C2`, the GI50 is 0.529 µM in the experiment on OVCAR-3 ovarian; 23.5 µM in the experiment with SK-MEL-5 melanoma; 16.7 µM in the experiment on ACHN renal; 16 µM with HOP-62 NSCLC; 28.9 µM in the experiment with SNB-75 CNS; > 100 µM in the experiment on M14 melanoma. Besides, in the experiment on HCT-15 colon, the GI50 is 13.7 µM. For the same molecule, the TGI with OVCAR-3 ovarian is 9.91 µM; with SK-MEL-5 melanoma, > 100 µM; in the experiment on ACHN renal, 43.8 µM; with HOP-62 NSCLC it was 29.4 µM; in the experiment with SNB-75 CNS it was > 100 µM; in the experiment on M14 melanoma, > 100 µM. Also, in the experiment on HCT-15 colon, the TGI turned out to be 44.5 µM.
Take `CC(C)=CC(=O)N(C)C1C2CN3CCC(O2)C13` (stereo not drawn): the TGI with OVCAR-3 ovarian, with SK-MEL-5 melanoma, in the experiment on ACHN renal, with HOP-62 NSCLC, with SNB-75 CNS and with M14 melanoma was > 100 µM each time. Further, in the experiment with HCT-15 colon, the concentration for total growth inhibition (TGI) was > 100 µM.
As to `O=C(c1nc2ccccc2[nH]c1=O)C(O)c1ccccc1` (stereo not drawn), the TGI in the experiment with OVCAR-3 ovarian, in the experiment on SK-MEL-5 melanoma, in the experiment on ACHN renal, in the experiment with HOP-62 NSCLC, with M14 melanoma and in the experiment with HCT-15 colon was > 100 µM in each case.
Regarding `N#CC(c1ccccn1)c1nc2ccccc2[nH]1` (stereo not drawn), the TGI in the experiment with OVCAR-3 ovarian, with SK-MEL-5 melanoma, with ACHN renal, in the experiment with HOP-62 NSCLC, in the experiment on SNB-75 CNS and in the experiment with M14 melanoma was > 100 µM in each case.
Take `O=C(O)/C=C/c1nc2ccccc2c(=O)o1`: the TGI in the experiment on OVCAR-3 ovarian, in the experiment on SK-MEL-5 melanoma, in the experiment on ACHN renal, in the experiment with SNB-75 CNS, in the experiment with M14 melanoma and in the experiment on HCT-15 colon was > 100 µM throughout.
